This is an account of results in PubChem BioAssay (NCI).

Where “and” joins values, the source holds several entries; their conditions need not be identical. Equal entries are not always repeated.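 Values below derive from 48-hour exposures of cells grown in 96-well plates, with endpoints linearly interpolated between the two concentrations bracketing the appropriate inhibition level. At the GI50, growth is halved. Definition used: TGI = concentration required for complete inhibition of growth.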 Bounds are passed on as bounds.

What all share (assay): NCI tumour cell line growth inhibition, 48 h
The subject of assay [1] is NCI-H226 lung.
For assay [2], the system named is UACC-257 melanoma.
In assay [3] the test system is U251 CNS.
The subject of assay [4] is HT29 colon.
Assay [5] relates to SK-OV-3 ovarian.
Assay [6] relates to CAKI-1 renal.
Assay [7] has as its system SW-620 colon.
The subject of assay [8] is DU-145 prostate.
Assay [9] deals with HCC-2998 colon.
For assay [10], the system named is SK-MEL-2 melanoma.

In the case of `COC(=O)[C@H]1[C@@H](C(C)C)O[C@@H](C(C)C)O[C@H]1C(F)(F)F`, the TGI in assay [1], in assay [2], in assay [3], in assay [4], in assay [5] and in [6] was > 100 µM throughout. The TGI in [7], in assay [8] and in assay [9] was > 100 µM each time.
In the case of `OCC1OC(n2cnc3cncnc32)C(O)C1O` (stereo unspecified), the TGI came to 3.33 µM in [1]; 3.75 µM in [2]; 4.58 µM in assay [3]; 2.89 µM in assay [4]; 5.16 µM in assay [5]; 2.68 µM in [6]. The TGI was determined as 1.84 µM in [7], 2.84 µM in [9] and 3.41 µM in assay [10].
Consider `Cc1ccc(C2=NOC(=O)[C@@H]3CCCC[C@@H]23)cc1`, for which the TGI in [1], in [2], in assay [3], in assay [4], in assay [5] and in assay [6] was > 100 µM each time. Further, the TGI in [7], in assay [8] and in assay [9] was > 100 µM each time.
Consider `Cc1ccc(C(C)(C)C[P+](C)(c2ccccc2)c2ccccc2)cc1`, for which the TGI in assay [1] is > 85.3 µM; in assay [2], > 26.7 µM; in assay [3], > 100 µM; in assay [4], 43.8 µM; in assay [5] it was 64.2 µM; in assay [6] it was > 69.2 µM. Further, the TGI in assay [7] was > 100 µM; in [9], > 70.3 µM; in assay [10], 19.7 µM.
As for `CC1(C)OCC(C(O)C2OC(C)(C)OC2C=O)O1` (stereo unspecified), the TGI in assay [1], in [2], in assay [3], in assay [4], in [5] and in [7] was > 100 µM each time. For the same molecule, the TGI in assay [8] and in assay [10] was > 100 µM throughout.
For the molecule `O=[N+]([O-])c1ccc(S[C@@H]2[C@H]3c4c(-c5ccccc5)[nH]c(-c5ccccc5)c4[C@@H]2C[C@H]3Cl)cc1`, the TGI in [1], in assay [2], in assay [3], in [4], in assay [5] and in assay [6] was > 100 µM each time. Further, the figures for the TGI in assay [7], in [8] and in assay [10] were > 100 µM, 17.3 µM and 70.9 µM, respectively.
Turning to `NC(=S)N/N=C\c1ccc(OCc2cccc(COc3ccc(/C=N/NC(N)=S)cc3)n2)cc1`, the TGI in assay [1], in [2], in [3], in assay [4], in assay [5] and in [6] was > 100 µM each time. The values for the TGI in assay [7], in [8] and in assay [10] were > 100 µM, > 100 µM and 38.1 µM, respectively.
Consider `CCNc1ccc2c(c1)Cc1ccccc1-2`, for which the TGI in [1], in assay [2], in assay [3], in [4], in assay [6] and in [7] was > 100 µM each time. For the same molecule, the TGI in assay [8], in [9] and in assay [10] was > 100 µM each time.
Regarding `CC(=O)OCC1OC(n2c3c(c(-c4cccc5ccccc45)c(C#N)c2=S)CCCC3)C(OC(C)=O)C(OC(C)=O)C1OC(C)=O` (stereo unspecified), the TGI in assay [1], in assay [2], in [3], in assay [4], in assay [5] and in assay [7] was > 100 µM in each case. Also, the TGI in assay [8], in assay [9] and in assay [10] was > 100 µM throughout.
`Nc1nc(-c2ccccc2N=NN2CCCC2)nc2ccccc12`: the TGI in [1] amounted to 12.2 µM; in assay [2], 14.9 µM; in assay [3] it was 8.91 µM; in assay [4] it was 10.8 µM; in assay [5] it was 21.4 µM; in [6], 18.5 µM. Besides, the TGI in assay [7] was 5.96 µM; in assay [8], 16.5 µM; in [10], 28.8 µM.
On to `CC[N+](C)(CC)CCC(O)(c1ccccc1)c1ccccc1`, for which the TGI in [1], in assay [2], in [3], in assay [4], in assay [5] and in assay [7] was > 100 µM in each case. Also, the TGI in assay [8], in [9] and in assay [10] was > 100 µM each time.
As for `COc1cccc(CC(C)NCC(O)c2ccc(O)c(O)c2)c1` (stereo unspecified), the TGI is 90.2 µM in assay [1]; > 100 µM in [2]; > 100 µM in assay [3]; > 100 µM in [4]; > 100 µM in assay [5]; > 100 µM in assay [6]. Moreover, the TGI in assay [7], in [8] and in [10] was > 100 µM each time.
As to `C/C(=C\c1ccccn1)c1ccccn1`, the TGI in [2], in assay [3], in [4], in assay [5], in assay [6] and in [8] was > 100 µM in each case. Further, the TGI in assay [9] and in assay [10] was > 100 µM each time.
Regarding `C/C=C\C(CC(=O)NCCc1cn(C(=O)OCc2ccccc2)c2ccccc12)CC(=O)OC` (stereo unspecified), the TGI in [2], in [3], in assay [4], in assay [5], in assay [6] and in assay [7] was > 100 µM throughout. Also, the TGI in [8], in assay [9] and in assay [10] was > 100 µM in each case.
As to `COC1OC(Cc2nnc(C)o2)C(OCc2ccccc2)C(OCc2ccccc2)C1OCc1ccccc1` (stereo unspecified), the TGI in [1] was 95.6 µM; in assay [2], 36.9 µM; in assay [3], > 100 µM; in [4] it was 63.3 µM; in assay [5] it was > 100 µM; in [6], > 100 µM. In addition, the figures for the TGI in assay [7], in [8] and in [10] were > 100 µM, > 100 µM and 29.2 µM, respectively.
Take `c1ccc(CCN2CCc3[nH]c4ccccc4c3C2)cc1`: the TGI in [1] was 71.4 µM; in [2], 30.4 µM; in assay [3], 31.9 µM; in assay [4] it was 28.5 µM; in assay [5] it was > 100 µM; in assay [7], 29.6 µM. For the same molecule, the TGI is > 100 µM in [8] and 30.5 µM in [9].
With `Cc1cccc2c1[nH]c1[nH]c(=O)[nH]c(=O)c12`, the TGI in [1], in assay [2], in assay [4], in assay [5], in assay [6] and in assay [7] was > 100 µM in each case. Further, the TGI in [8] and in assay [10] was > 100 µM throughout.
For `O=CC(O)C(O)C(O)C(O)C(=O)NCCCCCCCCCCCCNC(=O)C(O)C(O)C(O)C(O)C=O` (stereo unspecified), the TGI in assay [1], in [2], in assay [3], in [4], in assay [5] and in assay [7] was > 100 µM in each case. Further, the TGI in [8], in assay [9] and in assay [10] was > 100 µM each time.
On to `Nc1cccc2c1C(=O)c1cccc(N)c1C2=O`, for which the TGI in assay [1], in assay [2], in assay [3], in assay [4], in [5] and in assay [6] was > 100 µM in each case. Further, the TGI in assay [7], in assay [9] and in [10] was > 100 µM throughout.
On to `Cc1cc(O)c(C(C)C)cc1SC#N`, for which the TGI came to 38.1 µM in [2]; 31.8 µM in [3]; 37.6 µM in assay [5]; 28.2 µM in [6]; 44.5 µM in [7]; 28.8 µM in assay [8]. For the same molecule, the TGI in [9] came out at 32.9 µM; in assay [10] it was 35.7 µM.
Turning to `COC(=O)C1CCC(=O)N1C(=O)Cc1ccc(OC)cc1` (stereo unspecified), the TGI in assay [1], in assay [2], in assay [3], in assay [4], in [5] and in assay [6] was > 100 µM throughout. Besides, the TGI in assay [7] was > 100 µM.
With `CN(C)CCNC(=O)c1ccc(NCCCN(C)CCCNc2ccc3c(=O)n(CCN(C)C)c(=O)n4c5ccccc5c(=O)c2c34)c2c(=O)c3ccccc3[nH]c12`, the TGI was found to be 0.665 µM in assay [1]; 0.718 µM in [2]; 0.257 µM in assay [3]; 0.161 µM in [4]; 0.411 µM in [5]; 1.06 µM in [6]. Further, the figures for the TGI in assay [9] and in assay [10] were 0.146 µM and 0.228 µM, respectively.
Consider `[Cl][Pt+2][Cl].[NH-]C1CCCCC1[NH-]` (stereo unspecified), for which the TGI in assay [2] was > 96.6 µM; in assay [3], > 100 µM; in [4], > 100 µM and 31 µM; in assay [5], > 100 µM; in [6] it was > 53 µM and > 100 µM and 18.1 µM; in assay [7] it was 44.1 µM and > 56.4 µM and 13.1 µM. Further, the TGI is > 100 µM and 24.2 µM in [9]; > 74.1 µM and > 100 µM and 29.5 µM in [10]. The GI50 in [3] is 21 µM and 9.15 µM and 13.2 µM; in assay [5] it was 18.5 µM and > 80.9 µM and 25.1 µM; in assay [6] it was 1.44 µM and 3.52 µM and 0.769 µM; in [9], 42.6 µM and 17.2 µM and 4.67 µM; in assay [10] it was 28.8 µM and 12.8 µM and 3.93 µM.
Regarding `Cn1nc2n(c1=O)CCCN2`, the TGI in assay [1], in assay [2], in assay [3], in assay [4], in assay [7] and in [8] was > 100 µM each time. Also, the TGI in assay [9] was > 100 µM.
In the case of `COc1ccc(/C=c2\[nH]c3nc(=O)c(N4CCOCC4)c(N)n3c2=O)cc1`, the TGI in [1], in [2], in [3], in assay [4], in assay [5] and in [6] was > 100 µM throughout. The TGI in assay [7], in assay [8] and in [9] was > 100 µM each time.
In the case of `Cc1ccc(S(=O)(=O)NNC(=O)c2cc(C)ccc2NC(=O)C23CC4CC(CC(C4)C2)C3)cc1`, the TGI in [1] was > 100 µM; in assay [2], > 100 µM; in [3], > 100 µM; in assay [4], > 100 µM; in assay [5], 68.5 µM; in assay [6], > 100 µM. Besides, the TGI in assay [7], in assay [8] and in [9] was > 100 µM each time.
`Cc1ccccc1-n1c(C)nc2c1C(=O)c1ccccc1C2=O`: the TGI in [1], in assay [2], in [3], in assay [4], in assay [6] and in assay [7] was > 100 µM throughout. The TGI in assay [9] and in assay [10] was > 100 µM in each case.
For `Cc1cc(=O)n2nc(SCc3ccccc3)sc2n1`, the TGI in [1], in assay [3], in assay [4], in assay [5], in [7] and in assay [8] was > 100 µM in each case. The TGI in assay [9] was > 100 µM.
Turning to `N=C1N(S(=O)(=O)c2ccccc2)[C@@H](Cc2ccccc2)[C@H](c2ccccc2)C1(c1ccccc1)c1ccccc1`, the TGI in [2], in [3], in assay [4], in assay [5], in [6] and in assay [7] was > 100 µM each time. Further, the TGI in [8], in assay [9] and in assay [10] was > 100 µM each time.
For `COc1nc2c(c(=O)n1C)N[C@H]1[C@H](OC(C)=O)[C@@H](OC(C)=O)CO[C@H]1N2`, the TGI in assay [1], in [2], in [3], in [4], in assay [5] and in [6] was > 100 µM in each case. Also, the TGI in [7], in [8] and in assay [10] was > 100 µM throughout.
